Results published in patent US12624068B2, “Exon skipping by peptide nucleic acid derivatives” (OliPass Corporation, priority 2016, dated 2026).
[C(1O2)] = modified PNA monomer acting as cytosine, C(pOq) type, 1O2; [A(6)] = modified PNA monomer acting as adenine, A(p) type, p=6; [G(6)] = modified PNA monomer acting as guanine, G(p) type, p=6; {Fethoc} = N-terminal Fethoc cap; {NH2} = C-terminal amide

Assays:
[1] = tested on: SNAP25 protein; experiment: SNAP25 western blot in PC12 cells; assay type: cell-based, rat; details: 100 or 1,000 zM, 48 hours or 72 hours
Description: “SNAP-ASO 3” was evaluated for its ability to inhibit the expression of the SNAP25 protein in PC12 cells as follows.
PC12 cells were grown in 60 mm culture dish containing 5 mL culture medium, and treated with “SNAP-ASO 3” at 0 zM (negative control), 1 zM, 10 zM, 30 zM, 100 zM, 300 zM, 1 aM, 3 aM or 10 aM for 48 hours. There were 4 culture dishes of the negative control to compensate for potential technical artifacts during the western blot analysis.
[Cell Lysis] Then the cells were subjected to lysis on ice with 200 μL 1×RIPA buffer (Cat. Number 9806, Cell Signaling Tech) supplemented with 1% SDS and 1× proteinase inhibitors cocktail (cOmplete Mini, Roche). The lysates were collected in 1.5 mL e-tube, mixed with 100 μL 5× sample buffer, and boiled for 5 min.
[Western Blot] The lysates were subjected to electrophoretic separation on a 4-15% TGX-PAGE gradient gel (Cat. Number 456-1086, Bio-Rad) and then transferred onto a 0.45 μm PVDF membrane. The membrane was probed with an anti-SNAP25 antibody (Cat. Number S9684, Sigma) and an anti-β-actin antibody (Cat. Number A3845, Sigma).
“SNAP-ASO 1” was evaluated for its ability to inhibit the SNAP25 protein expression in PC12 cells as described in “SNAP25 Example 4”, unless noted otherwise. PC12 cells were treated with “SNAP-ASO 1” at 0 (negative control), 100 or 1,000 zM either for 48 hours or for 72 hours. […]

[2] = tested on: full-length SNAP25 mRNA; experiment: SNAP25 nested qPCR in PC12 cells; assay type: cell-based, rat
Description: [Cell Culture & ASO Treatment] PC12 cells grown in 60 mm culture dish containing 5 mL culture medium were treated with “SNAP-ASO 3” at 0 (negative control), 10, 100 or 1,000 zM. (2 culture dishes per ASO concentration) [RNA Extraction & cDNA Synthesis by One-step RT-PCR] Following an incubation with “SNAP-ASO 3” for 42 hours, the cells were treated 100 μg/mL cycloheximide for another 6 hours to freeze the ribosomal translation. Then total RNA was extracted from cells using “Universal RNA Extraction Kit” (Cat. Number 9767, Takara) according to the manufacturer's instructions. […] NO: 130); and SNAP-exon 14_reverse: (5'→3') […] [Nested qPCR Amplification] […] NO: 132); and SNAP-exon 8q_reverse: (5'→3') […] The qPCR reaction was followed with a Taqman probe of [(5'→3') 5,6-[…] NO: 134)] targeting the junction of exon 7 and exon 8 in order to quantify the full-length SNAP25 mRNA.

[3] = tested on: SNAP25 protein; experiment: SNAP25 IHC in skin of mice after topical administration; assay type: in vivo, C57BL/6 mice; details: topical 1, 10 or 100 fM solution, twice per day Days 0 to 4
Description: “SNAP-ASO 1” is a 16-mer ASO fully complementary to the 3′ splice site spanning the junction of intron 6 and exon 7 in the mouse SNAP25 pre-mRNA read out from the mouse genomic DNA [accessed from NCBI Reference Sequence: NC_000068]. “SNAP-ASO 1” was evaluated for its ability to inhibit the expression of SNAP25 protein in the skin upon topical administration as follows.
[Hair Cut and Grouping] In Day 0, 8 female C57BL/6 mice (5 weeks old) were anesthetized with zoletil/rompun, and the hair in the back (ca 3 cm×4 cm) was cut with a clipper. The mice were randomly assigned into 4 groups, i.e., no ASO treatment group (negative control) and 3 treatment groups of 1 fM, 10 fM and 100 fM “SNAP-ASO 1”. (2 animals per group)
[Topical Administration] Topical solutions were prepared by serially diluting an aqueous stock solution of “SNAP-ASO 1” in 30% (v/v) aqueous ethanol supplemented with 3% (v/v) glycerin to 0, 1, 10 and 100 fM “SNAP-ASO 1”. […]
[SNAP25 IHC] Skin samples were cryo-sectioned and immunostained in series with a primary anti-SNAP25 antibody (Cat. Number ab41455, Abcam) at 1:200 dilution, with a secondary anti-IgG (Cat Number BA-1100, Vector) at 1:200 dilution, and then with Dylight 594-streptavidin (Cat Number SA-5594, Vector, CA, USA) at 1:200 dilution for red fluorescence tagging. […]

[4] = tested on: 10-mer complementary DNA; experiment: Tm between PNA derivatives and 10-mer complementary DNA (N- or C-terminal); assay type: binding; details: uncorrected
Procedure, shortened: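 4 μM 10-mer PNA with 4 μM complementary 10-mer DNA in pH 7.16 buffer (10 mM sodium phosphate, 100 mM NaCl) was heated at 90 °C for a minute, slowly cooled to ambient, then Tm measured by UV absorbance at 260 nm.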

[5] = tested on: full-length TYR mRNA; experiment: TYR nested qPCR in B16F10 cells; assay type: cell-based, mouse; details: 1 to 1,000 aM
Description: [Cell Culture & ASO Treatment] B16F10 cells grown in 60 mm culture dish containing 5 mL culture medium were treated with “TYR-ASO 4” at 0 (negative control), 1, 10, 100 or 1000 aM. (2 culture dishes per dose)
[RNA Extraction & cDNA Synthesis by One-step PCR] Total RNA was extracted and subjected to cDNA synthesis as described in “TYR Example 1”.
[Nested qPCR Amplification]
[Statistical Analysis] The nested qPCR experiment was repeated independently four times, and individual mRNA levels from each experiment were normalized against the mRNA level without ASO treatment. The mRNA levels obtained from all the 4 separate experiments were pooled for statistical analysis by student's t-test. Thus the number of RNA samples is 8 per ASO concentration.

[6] = tested on: TYR protein; experiment: TYR western blot in B16F10 cells; assay type: cell-based, mouse; details: 10 zM to 10 aM, 24 hours
Description: “TYR-ASO 4” was evaluated for its ability to inhibit the expression of TYR protein in B16F10 cells as described below.
B16F10 cells grown in 60 mm culture dish containing 5 mL culture medium were treated with “TYR-ASO 4” for 24 hours at 0 zM (negative control), 10 zM, 100 zM, 1 aM or 10 aM, and subjected to lysis with 200 μL 1× cell lysis buffer (Cat. No. 9803, Cell Signaling Tech) supplemented with 1× protease inhibitors cocktail (Cat. No. P8340, Sigma). 200 μL of each lysate was mixed with 100 μL 5× sample buffer, and boiled at 100° C. for 5 min. 20 μL of each lysate was subjected to electrophoretic separation on a 4-15% gradient TGX gel (Cat No. 456-1086, Bio-Rad), and protein transfer onto a 0.45 μm PVDF membrane. The membrane was probed with an anti-TYR antibody (Cat. No. 9319, Cell Signaling Tech) and an anti-3-actin antibody (Cat. No. a3845, Sigma).

[7] = tested on: melanogenesis in B16F10 cells; experiment: Melanin content (melanogenesis) in B16F10 cells; assay type: cell-based, mouse; details: 1 to 1,000 aM, 24 hours
Description: “TYR-ASO 4” was evaluated for its ability to inhibit the melanogenesis in B16F10 cells as described below.
B16F10 cells grown in 60 mm culture dish containing 5 mL culture medium were treated either with “TYR-ASO 4” at 0 (negative control) or 1 to 1,000 aM, or with 10 or 100 μg/mL arbutin as a positive control. (2 culture dishes per dose) 24 hours later, the cells were subjected to lysis with 200 μL 1N NaOH. Each lysate was collected in 1.5 mL e-tube, and kept overnight at room temperature. The melanin content in each lysate was determined by absorbance at 475 nm on an ELISA reader. The experiment was repeated four times using cells at different passage. The four sets of the melanin content data were pooled for statistical analysis by student's t-test against the melanin content without treatment (negative control).

[8] = tested on: mouse TYR pre-mRNA; experiment: TYR nested PCR for exon skipping in B16F10 cells; assay type: cell-based; details: 1 to 1,000 aM, 5 hours
Description: “TYR-ASO 4” was evaluated for its ability to induce the skipping of the mouse TYR exon 2 in B16F10 melanoma cells as follows. “TYR-ASO 4” may serve as a good surrogate compound for “TYR-ASO 1” which is fully complementary to the human TYR pre-mRNA. [Cell Culture & ASO Treatment] B16F10 mouse melanoma cells (Cat. Number CRL-6475, ATCC) were maintained in DMEM (Dulbecco's modified Eagle's essential minimum medium) supplemented with 10% FBS, 1% streptomycin/penicillin, and 0.01 mg/ml bovine insulin. B16F10 cells grown in 60 mm culture dish containing 5 mL DMEM were incubated for 5 hours with “TYR-ASO 4” at 0 (negative control), 1, 10, 100 or 1000 aM. [RNA Extraction & cDNA Synthesis by One-step PCR] Total RNA was extracted using “Universal RNA Extraction Kit” (Cat. Number 9767, Takara) according to the manufacturer's instructions. […] NO: 142); and TYR-exon 4_reverse: (5'→3') […] [Nested PCR Amplification] […] NO: 144); and TYR-exon 4n_reverse: (5'→3') […] [Identification of Exon Skipping Products] The PCR products were subjected to electrophoretic separation on a 2% agarose gel. The bands of target size were collected and analyzed by Sanger Sequencing.

[9] = tested on: full-length TYR mRNA; experiment: TYR nested qPCR in human primary epidermal melanocytes; assay type: cell-based; details: 1 zM to 10 aM, 5 hours
Description: [Cell Culture & ASO Treatment] Primary epidermal melanocytes (Cat. Number PCS-200-013, ATCC) cells were maintained in Dermal Cell Basal Medium (Cat Number PCS-200-030, ATCC) supplemented with Adult Melanocyte Growth Kit Component (Cat. Number PCS-200-042, ATCC). Melanocytes grown in 60 mm culture dish containing 5 mL culture medium were treated with “TYR-ASO 1” at 0 zM (negative control), 1 zM, 100 zM, or 10 aM. (3 culture dishes per concentration) [RNA Extraction & cDNA Synthesis by One-step PCR] Following an incubation with “TYR-ASO 1” for 5 hours, total RNA was extracted using “RNeasy Mini Kit” (Cat. Number 74106, Qiagen) according to the manufacturer's instructions. […] NO: 147); and TYR-exon 5_reverse: (5'→3') […] [Nested PCR Amplification] […] NO: 149); and TYR-exon 3n_reverse: (5'→3') […] NO: 150)] against a Taqman probe [(5'→3') 5,6-[…] NO: 151)].

Fethoc-A(6)TT-TG(6)T-TA(6)C-CC(1O2)T-GG(6)G-A(6)-NH2 (ATTTGTTACCCTGGGA; all peptide nucleic acid (PNA), [A(6)] at 1, 8, 16, [G(6)] at 5, 14, [C(1O2)] at 11, 5' {Fethoc}, 3' {NH2}; peptide nucleic acid written N to C) [SNAP-ASO 1]
expression of the SNAP25 protein (western blot) [1]: considerably inhibited
decrease of full-length SNAP25 mRNA level (qPCR) ([2]; PC12 cells, 10 zM): ~50%
decrease of full-length SNAP25 mRNA level (qPCR) ([2]; PC12 cells, 100 zM): 40%
decrease of full-length SNAP25 mRNA level (qPCR) ([2]; PC12 cells, 1,000 zM): 70%
SNAP25 protein expression in the muscle layer of skin (IHC) [3]: gradually decreased as the dose was increased

Fethoc-CA(5)A-A(5)TG-A(5)TC(1O2)-TG(6)T-G-NH2 (antisense CAAATGATCTGTG; chemistry not fully specified) [TYR-ASO 4]
Tm Value, 10-mer DNA against C-Terminal [4]: 72.0 °C
Tm Value, 10-mer DNA against N-Terminal [4]: 72.0 °C
decrease of full-length TYR mRNA level (qPCR) [5]: ~40%
TYR protein level (western blot) [6]: considerably higher in the lysates of the negative control
decrease of melanin content [7]: ~15%
TYR exon skipping by nested PCR [8]: yielded essentially only the splice variant TYR mRNA lacking exons 2 and 3

Fethoc-CA(5)G-ACA(5)-ATC(1O2)-TG(6)T-A(5)-NH2 (antisense CAGACAATCTGTA; chemistry not fully specified) [TYR-ASO 1]
Tm Value, 10-mer DNA against C-Terminal [4]: 73.0 °C
Tm Value, 10-mer DNA against N-Terminal [4]: 78.0 °C
decrease of full-length TYR mRNA level (qPCR) [9]: ~30%
